Article PMC4917279 (Journal of Medicinal Chemistry, 2016)

Legend:
MET(Y1235D) = target: T1, MET(Y1235D) (Homo sapiens, UniProt P08581, Y1235D); test: KINOMEscan; format: binding; details: read-out: %Ctrl @ 1000 nM
T1 construct: purchased DiscoveRx KINOMEscan

PIK3CA(C420R) = target: T2, PIK3CA(C420R) (Homo sapiens, UniProt P42336, C420R); test: KINOMEscan; format: binding; details: read-out: %Ctrl @ 1000 nM
T2 construct: purchased DiscoveRx KINOMEscan

CSNK2A1 = target: T3, CSNK2A1 (Homo sapiens, UniProt P68400); test: KINOMEscan; format: binding; details: read-out: %Ctrl @ 1000 nM
T3 construct: purchased DiscoveRx KINOMEscan
T3 sequence (P68400 whole entry): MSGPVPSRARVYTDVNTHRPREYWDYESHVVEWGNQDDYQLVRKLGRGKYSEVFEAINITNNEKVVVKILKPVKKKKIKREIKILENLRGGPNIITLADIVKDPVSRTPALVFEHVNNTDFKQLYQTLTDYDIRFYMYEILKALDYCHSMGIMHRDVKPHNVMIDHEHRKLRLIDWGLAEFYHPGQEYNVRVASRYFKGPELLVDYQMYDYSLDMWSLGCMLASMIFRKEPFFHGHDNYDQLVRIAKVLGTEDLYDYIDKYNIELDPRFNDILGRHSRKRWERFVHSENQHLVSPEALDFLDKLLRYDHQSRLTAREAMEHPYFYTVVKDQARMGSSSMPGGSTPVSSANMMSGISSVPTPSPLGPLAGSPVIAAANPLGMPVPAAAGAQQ

HIPK2 = target: T4, HIPK2 (Homo sapiens, UniProt Q9H2X6); test: KINOMEscan; format: binding; details: read-out: %Ctrl @ 1000 nM
T4 construct: purchased DiscoveRx KINOMEscan

GRK7 = target: T5, GRK7 (Homo sapiens, UniProt Q8WTQ7); test: KINOMEscan; format: binding; details: read-out: %Ctrl @ 1000 nM
T5 construct: purchased DiscoveRx KINOMEscan

INSRR = target: T6, INSRR (Homo sapiens, UniProt P14616); test: KINOMEscan; format: binding; details: read-out: %Ctrl @ 1000 nM
T6 construct: purchased DiscoveRx KINOMEscan

CAMK2A = target: T7, CAMK2A (Homo sapiens, UniProt Q9UQM7); test: KINOMEscan; format: binding; details: read-out: %Ctrl @ 1000 nM
T7 construct: purchased DiscoveRx KINOMEscan

PAK6 = target: T8, PAK6 (Homo sapiens, UniProt Q9NQU5); test: KINOMEscan; format: binding; details: read-out: %Ctrl @ 1000 nM
T8 construct: purchased DiscoveRx KINOMEscan

JNK1 = target: T9, JNK1 (Homo sapiens, UniProt P45983); test: KINOMEscan; format: binding; details: read-out: %Ctrl @ 1000 nM
T9 construct: purchased DiscoveRx KINOMEscan

PRKD2 = target: T10, PRKD2 (Homo sapiens, UniProt Q9BZL6); test: KINOMEscan; format: binding; details: read-out: %Ctrl @ 1000 nM
T10 construct: purchased DiscoveRx KINOMEscan

EGFR(T790M) = target: T11, EGFR(T790M) (Homo sapiens, UniProt P00533, T790M); test: KINOMEscan; format: binding; details: read-out: %Ctrl @ 1000 nM
T11 construct: purchased DiscoveRx KINOMEscan

ROCK1 = target: T12, ROCK1 (Homo sapiens, UniProt Q13464); test: KINOMEscan; format: binding; details: read-out: %Ctrl @ 1000 nM
T12 construct: purchased DiscoveRx KINOMEscan

RIOK1 = target: T13, RIOK1 (Homo sapiens, UniProt Q9BRS2); test: KINOMEscan; format: binding; details: read-out: %Ctrl @ 1000 nM
T13 construct: purchased DiscoveRx KINOMEscan

SMYD2 = SMYD2 (Homo sapiens, UniProt Q9NRG4); test: Ex vivo methylation detection by dot blot (AHNAK) in SMYD2-overexpressing KYSE-150 xenografts; parameters: expressed in transfected cells; species or system mouse; details: 3 days
SMYD2, sequence (Q9NRG4 whole entry): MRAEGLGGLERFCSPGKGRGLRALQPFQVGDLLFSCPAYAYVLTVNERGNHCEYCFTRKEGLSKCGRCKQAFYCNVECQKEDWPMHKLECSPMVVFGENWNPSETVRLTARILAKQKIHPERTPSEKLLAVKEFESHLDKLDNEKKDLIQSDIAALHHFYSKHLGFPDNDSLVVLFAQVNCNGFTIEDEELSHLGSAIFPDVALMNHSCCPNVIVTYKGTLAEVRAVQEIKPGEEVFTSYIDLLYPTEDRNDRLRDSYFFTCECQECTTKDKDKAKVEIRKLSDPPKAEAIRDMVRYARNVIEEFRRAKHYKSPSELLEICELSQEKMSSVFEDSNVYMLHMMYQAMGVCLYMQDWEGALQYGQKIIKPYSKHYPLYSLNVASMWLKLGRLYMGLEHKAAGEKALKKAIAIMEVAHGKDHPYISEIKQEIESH

PRKR = target: T14, PRKR (Homo sapiens, UniProt P19525); test: KINOMEscan; format: binding; details: read-out: %Ctrl @ 1000 nM
T14 construct: purchased DiscoveRx KINOMEscan

[1] = target: T15, RSK2(Kin.Dom.1-N-terminal) (Homo sapiens, UniProt P51812); test: KINOMEscan; format: binding; details: read-out: %Ctrl @ 1000 nM
T15 construct: RSK2(Kin.Dom.1-N-terminal); purchased DiscoveRx KINOMEscan

MYLK4 = target: T16, MYLK4 (Homo sapiens, UniProt Q86YV6); test: KINOMEscan; format: binding; details: read-out: %Ctrl @ 1000 nM
T16 construct: purchased DiscoveRx KINOMEscan
T16 sequence (Q86YV6 whole entry): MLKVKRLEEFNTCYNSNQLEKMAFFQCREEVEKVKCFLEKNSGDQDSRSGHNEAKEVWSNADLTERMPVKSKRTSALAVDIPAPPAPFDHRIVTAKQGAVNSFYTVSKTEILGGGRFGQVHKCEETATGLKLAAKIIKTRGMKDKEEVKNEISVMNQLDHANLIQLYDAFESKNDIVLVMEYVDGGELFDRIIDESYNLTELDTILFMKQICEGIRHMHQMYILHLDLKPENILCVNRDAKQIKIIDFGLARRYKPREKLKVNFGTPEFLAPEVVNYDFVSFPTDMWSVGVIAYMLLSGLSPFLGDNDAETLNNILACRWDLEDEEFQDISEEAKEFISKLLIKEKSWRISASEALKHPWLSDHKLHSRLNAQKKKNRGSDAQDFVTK

ERK5 = target: T17, ERK5 (Homo sapiens, UniProt Q13164); test: KINOMEscan; format: binding; details: read-out: %Ctrl @ 1000 nM
T17 construct: purchased DiscoveRx KINOMEscan

CAMK2G = target: T18, CAMK2G (Homo sapiens, UniProt Q13555); test: KINOMEscan; format: binding; details: read-out: %Ctrl @ 1000 nM
T18 construct: purchased DiscoveRx KINOMEscan

FGR = target: T19, FGR (Homo sapiens, UniProt P09769); test: KINOMEscan; format: binding; details: read-out: %Ctrl @ 1000 nM
T19 construct: purchased DiscoveRx KINOMEscan

EPHA3 = target: T20, EPHA3 (Homo sapiens, UniProt P29320); test: KINOMEscan; format: binding; details: read-out: %Ctrl @ 1000 nM
T20 construct: purchased DiscoveRx KINOMEscan
T20 sequence (P29320 21-983): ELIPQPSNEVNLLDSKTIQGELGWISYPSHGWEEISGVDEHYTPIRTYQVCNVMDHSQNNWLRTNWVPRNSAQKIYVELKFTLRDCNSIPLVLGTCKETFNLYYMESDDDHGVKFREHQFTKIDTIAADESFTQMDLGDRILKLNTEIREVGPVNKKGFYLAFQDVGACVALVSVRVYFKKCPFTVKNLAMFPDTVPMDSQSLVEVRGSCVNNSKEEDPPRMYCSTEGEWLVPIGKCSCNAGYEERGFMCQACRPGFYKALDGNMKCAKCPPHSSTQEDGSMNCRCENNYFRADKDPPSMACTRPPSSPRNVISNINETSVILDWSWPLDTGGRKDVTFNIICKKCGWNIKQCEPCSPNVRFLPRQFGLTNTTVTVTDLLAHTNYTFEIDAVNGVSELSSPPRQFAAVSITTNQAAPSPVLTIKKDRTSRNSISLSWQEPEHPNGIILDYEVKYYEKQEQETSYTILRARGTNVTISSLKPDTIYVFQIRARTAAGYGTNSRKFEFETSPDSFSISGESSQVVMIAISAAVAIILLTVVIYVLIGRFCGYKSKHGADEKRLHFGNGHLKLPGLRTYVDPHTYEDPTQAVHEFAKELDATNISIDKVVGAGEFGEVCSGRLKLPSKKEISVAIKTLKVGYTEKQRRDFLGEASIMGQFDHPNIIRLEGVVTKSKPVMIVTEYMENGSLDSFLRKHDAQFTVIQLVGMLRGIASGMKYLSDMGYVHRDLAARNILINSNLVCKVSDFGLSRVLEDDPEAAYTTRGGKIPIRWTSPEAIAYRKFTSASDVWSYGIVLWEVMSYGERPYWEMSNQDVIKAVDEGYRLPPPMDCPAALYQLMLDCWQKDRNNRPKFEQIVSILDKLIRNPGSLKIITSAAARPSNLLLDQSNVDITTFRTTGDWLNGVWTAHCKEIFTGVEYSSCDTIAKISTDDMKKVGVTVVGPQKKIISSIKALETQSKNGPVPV

MST1R = target: T21, MST1R (Homo sapiens, UniProt Q04912); test: KINOMEscan; format: binding; details: read-out: %Ctrl @ 1000 nM
T21 construct: purchased DiscoveRx KINOMEscan

[2] = target: T22, RSK3(Kin.Dom.1-N-terminal) (Homo sapiens, UniProt Q15349); test: KINOMEscan; format: binding; details: read-out: %Ctrl @ 1000 nM
T22 construct: RSK3(Kin.Dom.1-N-terminal); purchased DiscoveRx KINOMEscan

SBK1 = target: T23, SBK1 (Homo sapiens, UniProt Q52WX2); test: KINOMEscan; format: binding; details: read-out: %Ctrl @ 1000 nM
T23 construct: purchased DiscoveRx KINOMEscan

AURKA = target: T24, AURKA (Homo sapiens, UniProt O14965); test: KINOMEscan; format: binding; details: read-out: %Ctrl @ 1000 nM
T24 construct: purchased DiscoveRx KINOMEscan

PIK3CA = target: T25, PIK3CA (Homo sapiens, UniProt P42336); test: KINOMEscan; format: binding; details: read-out: %Ctrl @ 1000 nM
T25 construct: purchased DiscoveRx KINOMEscan
T25 sequence (P42336 whole entry): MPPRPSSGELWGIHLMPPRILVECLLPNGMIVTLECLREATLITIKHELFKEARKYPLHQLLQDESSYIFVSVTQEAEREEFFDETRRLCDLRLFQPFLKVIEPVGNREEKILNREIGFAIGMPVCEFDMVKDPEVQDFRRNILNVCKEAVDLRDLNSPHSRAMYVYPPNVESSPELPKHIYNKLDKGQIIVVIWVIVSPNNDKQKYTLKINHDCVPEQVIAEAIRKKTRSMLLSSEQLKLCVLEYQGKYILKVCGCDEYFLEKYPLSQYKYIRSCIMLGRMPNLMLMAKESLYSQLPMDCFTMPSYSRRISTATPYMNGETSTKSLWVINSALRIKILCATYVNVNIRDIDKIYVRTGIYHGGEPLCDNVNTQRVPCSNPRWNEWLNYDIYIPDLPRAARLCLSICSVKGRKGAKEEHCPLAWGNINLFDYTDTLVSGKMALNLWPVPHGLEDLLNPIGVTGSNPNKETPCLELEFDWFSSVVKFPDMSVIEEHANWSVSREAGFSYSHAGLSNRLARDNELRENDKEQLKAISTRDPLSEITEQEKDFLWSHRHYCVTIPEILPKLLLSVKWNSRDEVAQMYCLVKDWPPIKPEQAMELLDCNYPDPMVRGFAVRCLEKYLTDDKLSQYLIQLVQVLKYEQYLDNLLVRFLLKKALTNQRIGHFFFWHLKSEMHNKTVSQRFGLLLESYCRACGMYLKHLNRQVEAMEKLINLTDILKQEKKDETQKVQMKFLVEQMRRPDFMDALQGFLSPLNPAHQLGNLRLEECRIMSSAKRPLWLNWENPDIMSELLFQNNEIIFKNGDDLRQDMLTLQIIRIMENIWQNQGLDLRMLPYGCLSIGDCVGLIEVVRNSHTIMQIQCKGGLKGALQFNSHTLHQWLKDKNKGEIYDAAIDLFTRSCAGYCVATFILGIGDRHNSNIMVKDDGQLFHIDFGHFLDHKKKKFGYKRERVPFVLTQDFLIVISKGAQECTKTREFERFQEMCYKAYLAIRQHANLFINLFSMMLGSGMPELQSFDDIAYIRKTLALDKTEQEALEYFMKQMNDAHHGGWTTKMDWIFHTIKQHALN

JNK2 = target: T26, JNK2 (Homo sapiens, UniProt P45984); test: KINOMEscan; format: binding; details: read-out: %Ctrl @ 1000 nM
T26 construct: purchased DiscoveRx KINOMEscan

EGFR(L858R) = target: T27, EGFR(L858R) (Homo sapiens, UniProt P00533, L858R); test: KINOMEscan; format: binding; details: read-out: %Ctrl @ 1000 nM
T27 construct: purchased DiscoveRx KINOMEscan

MST1 = target: T28, MST1 (Homo sapiens, UniProt Q13043); test: KINOMEscan; format: binding; details: read-out: %Ctrl @ 1000 nM
T28 construct: purchased DiscoveRx KINOMEscan

[3] = target: T29, TYK2(JH2domain-pseudokinase) (Homo sapiens, UniProt P29597); test: KINOMEscan; format: binding; details: read-out: %Ctrl @ 1000 nM
T29 construct: TYK2(JH2domain-pseudokinase); purchased DiscoveRx KINOMEscan
T29 sequence (P29597 556-888 limits assumed): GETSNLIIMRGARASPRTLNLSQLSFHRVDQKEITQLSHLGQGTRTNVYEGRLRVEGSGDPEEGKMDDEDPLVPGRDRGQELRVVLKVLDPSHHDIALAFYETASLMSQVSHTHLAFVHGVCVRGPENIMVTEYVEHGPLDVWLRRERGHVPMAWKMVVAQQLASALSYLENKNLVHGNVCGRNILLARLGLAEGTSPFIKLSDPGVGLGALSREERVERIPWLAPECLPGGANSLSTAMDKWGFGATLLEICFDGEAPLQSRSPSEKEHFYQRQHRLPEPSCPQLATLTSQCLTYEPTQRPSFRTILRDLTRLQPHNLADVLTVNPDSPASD

BTK = target: T30, BTK (Homo sapiens, UniProt Q06187); test: KINOMEscan; format: binding; details: read-out: %Ctrl @ 1000 nM
T30 construct: purchased DiscoveRx KINOMEscan
T30 sequence (Q06187 whole entry): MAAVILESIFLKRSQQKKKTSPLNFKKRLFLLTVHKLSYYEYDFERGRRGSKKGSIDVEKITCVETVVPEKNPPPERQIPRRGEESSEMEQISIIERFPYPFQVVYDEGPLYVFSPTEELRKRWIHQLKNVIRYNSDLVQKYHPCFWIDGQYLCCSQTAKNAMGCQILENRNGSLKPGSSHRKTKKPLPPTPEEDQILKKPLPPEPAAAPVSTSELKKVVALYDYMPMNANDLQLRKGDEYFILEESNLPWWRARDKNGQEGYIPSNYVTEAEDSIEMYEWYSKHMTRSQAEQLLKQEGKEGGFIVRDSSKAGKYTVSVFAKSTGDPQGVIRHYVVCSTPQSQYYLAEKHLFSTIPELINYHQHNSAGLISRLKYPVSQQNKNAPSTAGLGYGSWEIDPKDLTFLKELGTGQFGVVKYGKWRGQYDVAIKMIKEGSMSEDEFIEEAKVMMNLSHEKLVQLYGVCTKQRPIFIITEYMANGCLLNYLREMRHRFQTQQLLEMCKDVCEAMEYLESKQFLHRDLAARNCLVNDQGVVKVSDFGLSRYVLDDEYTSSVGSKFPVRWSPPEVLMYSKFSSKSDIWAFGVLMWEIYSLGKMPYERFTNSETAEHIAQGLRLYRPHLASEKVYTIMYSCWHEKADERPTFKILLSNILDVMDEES

ACVRL1 = target: T31, ACVRL1 (Homo sapiens, UniProt P37023); test: KINOMEscan; format: binding; details: read-out: %Ctrl @ 1000 nM
T31 construct: purchased DiscoveRx KINOMEscan

MST4 = target: T32, MST4 (Homo sapiens, UniProt Q9P289); test: KINOMEscan; format: binding; details: read-out: %Ctrl @ 1000 nM
T32 construct: purchased DiscoveRx KINOMEscan

SYK = target: T33, SYK (Homo sapiens, UniProt P43405); test: KINOMEscan; format: binding; details: read-out: %Ctrl @ 1000 nM
T33 construct: purchased DiscoveRx KINOMEscan

WEE1 = target: T34, WEE1 (Homo sapiens, UniProt P30291); test: KINOMEscan; format: binding; details: read-out: %Ctrl @ 1000 nM
T34 construct: purchased DiscoveRx KINOMEscan

MEK6 = target: T35, MEK6 (Homo sapiens, UniProt P52564); test: KINOMEscan; format: binding; details: read-out: %Ctrl @ 1000 nM
T35 construct: purchased DiscoveRx KINOMEscan

EPHA4 = target: T36, EPHA4 (Homo sapiens, UniProt P54764); test: KINOMEscan; format: binding; details: read-out: %Ctrl @ 1000 nM
T36 construct: purchased DiscoveRx KINOMEscan

ABL2 = target: T37, ABL2 (Homo sapiens, UniProt P42684); test: KINOMEscan; format: binding; details: read-out: %Ctrl @ 1000 nM
T37 construct: purchased DiscoveRx

BLK = target: T38, BLK (Homo sapiens, UniProt P51451); test: KINOMEscan; format: binding; details: read-out: %Ctrl @ 1000 nM
T38 construct: purchased DiscoveRx KINOMEscan

[4] = target: T39, ABL1(F317L)-phosphorylated (Homo sapiens, UniProt P00519, F317L); test: KINOMEscan; format: binding; details: read-out: %Ctrl @ 1000 nM
T39 construct: purchased DiscoveRx (KINOMEscan service)

DCAMKL3 = target: T40, DCAMKL3 (Homo sapiens, UniProt Q9C098); test: KINOMEscan; format: binding; details: read-out: %Ctrl @ 1000 nM
T40 construct: purchased DiscoveRx KINOMEscan
T40 sequence (Q9C098 whole entry): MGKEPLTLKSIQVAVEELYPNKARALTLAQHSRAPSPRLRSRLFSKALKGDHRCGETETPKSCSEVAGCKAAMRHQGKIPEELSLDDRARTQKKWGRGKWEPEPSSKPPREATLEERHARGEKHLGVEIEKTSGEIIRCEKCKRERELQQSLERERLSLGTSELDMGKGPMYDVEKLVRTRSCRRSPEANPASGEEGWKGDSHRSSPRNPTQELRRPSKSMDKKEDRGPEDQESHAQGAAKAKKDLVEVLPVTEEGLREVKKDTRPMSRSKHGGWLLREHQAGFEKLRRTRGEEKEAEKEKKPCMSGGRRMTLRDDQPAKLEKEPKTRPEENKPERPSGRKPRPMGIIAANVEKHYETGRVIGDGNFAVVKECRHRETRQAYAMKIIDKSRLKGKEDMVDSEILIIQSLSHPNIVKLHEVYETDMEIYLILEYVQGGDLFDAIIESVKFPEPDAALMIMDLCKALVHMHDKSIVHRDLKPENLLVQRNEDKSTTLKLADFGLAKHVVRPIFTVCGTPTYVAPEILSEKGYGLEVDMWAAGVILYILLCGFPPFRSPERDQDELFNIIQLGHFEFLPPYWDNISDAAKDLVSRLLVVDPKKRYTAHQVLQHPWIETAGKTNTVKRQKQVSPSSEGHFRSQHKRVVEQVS

T2 sequence (P42336 whole entry C420R): as the sequence (P42336 whole entry) above, with C420R counted along it

CCN(C(=O)CO)[C@H]1CN(/C(=N\C#N)Nc2cccc(OC(F)F)c2)N=C1c1ccc(Cl)c(Cl)c1 [(S)-4]
remaining binding at 1 µM (MET(Y1235D)): 100%
remaining binding at 1 µM (PIK3CA(C420R)): 76%
remaining binding at 1 µM (CSNK2A1): 78%
remaining binding at 1 µM (HIPK2): 100%
remaining binding at 1 µM (GRK7): 100%
remaining binding at 1 µM (INSRR): 85%
remaining binding at 1 µM (CAMK2A): 100%
remaining binding at 1 µM (PAK6): 100%
remaining binding at 1 µM (JNK1): 96%
remaining binding at 1 µM (PRKD2): 100%
remaining binding at 1 µM (EGFR(T790M)): 86%
remaining binding at 1 µM (ROCK1): 98%
remaining binding at 1 µM (RIOK1): 77%
Ex vivo AHNAK methylation in tumors (SMYD2; 10 mg/kg po qd): no significant effect
Ex vivo AHNAK methylation in tumors (SMYD2; 100 mg/kg po qd): most significant effects
Ex vivo AHNAK methylation in tumors (SMYD2; doses starting from 30 mg/kg po qd): significantly reduced
remaining binding at 1 µM (PRKR): 84%
remaining binding at 1 µM [1]: 99%
remaining binding at 1 µM (MYLK4): 100%
remaining binding at 1 µM (ERK5): 80%
remaining binding at 1 µM (CAMK2G): 89%
remaining binding at 1 µM (FGR): 100%
remaining binding at 1 µM (EPHA3): 100%
remaining binding at 1 µM (MST1R): 81%
remaining binding at 1 µM [2]: 91%
remaining binding at 1 µM (SBK1): 88%
remaining binding at 1 µM (AURKA): 96%
remaining binding at 1 µM (PIK3CA): 97%
remaining binding at 1 µM (JNK2): 100%
remaining binding at 1 µM (EGFR(L858R)): 91%
remaining binding at 1 µM (MST1): 68%
remaining binding at 1 µM [3]: 95%
remaining binding at 1 µM (BTK): 79%
remaining binding at 1 µM (ACVRL1): 74%
remaining binding at 1 µM (MST4): 81%
remaining binding at 1 µM (SYK): 59%
remaining binding at 1 µM (WEE1): 100%
remaining binding at 1 µM (MEK6): 74%
remaining binding at 1 µM (EPHA4): 90%
remaining binding at 1 µM (ABL2): 88%
remaining binding at 1 µM (BLK): 88%
remaining binding at 1 µM [4]: 93%
remaining binding at 1 µM (DCAMKL3): 75%
